Assay results reported in paper PMC8333425, “Discovery of a dual Ras and ARF6 inhibitor from a GPCR endocytosis screen” (Nature Communications, 2021).

Columns and labels:
Test in all cases: KINOMEscan kinase binding assay
[1] = target: T1, 384 kinases from the human genome (Homo sapiens, UniProt O43293); conditions: kinase DAPK3 (Entrez DAPK3)
T1 construct: purchased Eurofin/DiscoverX
Outline: (§1)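 A panel of 384 human kinases was profiled by KINOMEscan binding in the presence of 10 µM compound. Kinase–ligand binding was given as percent of DMSO control, averaged from duplicates in a single run, with an S(10) selectivity score.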

[2] = target: T2, 384 kinases from the human genome (Homo sapiens, UniProt O96013); conditions: kinase PAK4 (Entrez PAK4)
T2 construct: purchased Eurofin/DiscoverX
Outline: as §1

[3] = target: T3, 384 kinases from the human genome (Homo sapiens, UniProt P0C1S8); conditions: kinase WEE2 (Entrez WEE2)
T3 construct: purchased Eurofin/DiscoverX
Outline: as §1

[4] = target: T4, 384 kinases from the human genome (Homo sapiens, UniProt P11362); conditions: kinase FGFR1 (Entrez FGFR1)
T4 construct: purchased Eurofin/DiscoverX
Outline: as §1

[5] = target: T5, 384 kinases from the human genome (Homo sapiens, UniProt P21709); conditions: kinase EPHA1 (Entrez EPHA1)
T5 construct: purchased Eurofin/DiscoverX
Outline: as §1

[6] = target: T6, 384 kinases from the human genome (Homo sapiens, UniProt P24723); conditions: kinase PRKCH (Entrez PRKCH)
T6 construct: purchased Eurofin/DiscoverX
Outline: as §1

[7] = target: T7, 384 kinases from the human genome (Homo sapiens, UniProt P28482); conditions: kinase ERK2 (Entrez MAPK1)
T7 construct: purchased Eurofin/DiscoverX
Outline: as §1

[8] = target: T8, 384 kinases from the human genome (Homo sapiens, UniProt P43403); conditions: kinase ZAP70 (Entrez ZAP70)
T8 construct: purchased Eurofin/DiscoverX
Outline: as §1

[9] = target: T9, 384 kinases from the human genome (Homo sapiens, UniProt P49759); conditions: kinase CLK1 (Entrez CLK1)
T9 construct: purchased Eurofin/DiscoverX
Outline: as §1

[10] = target: T10, 384 kinases from the human genome (Homo sapiens, UniProt P51451); conditions: kinase BLK (Entrez BLK)
T10 construct: purchased Eurofin/DiscoverX
Outline: as §1

[11] = target: T11, 384 kinases from the human genome (Homo sapiens, UniProt P51813); conditions: kinase BMX (Entrez BMX)
T11 construct: purchased Eurofin/DiscoverX
Outline: as §1

[12] = target: T12, 384 kinases from the human genome (Homo sapiens, UniProt P51817); conditions: kinase PRKX (Entrez PRKX)
T12 construct: purchased Eurofin/DiscoverX
Outline: as §1

[13] = target: T13, 384 kinases from the human genome (Homo sapiens, UniProt P51956); conditions: kinase NEK3 (Entrez NEK3)
T13 construct: purchased Eurofin/DiscoverX
Outline: as §1

[14] = target: T14, 384 kinases from the human genome (Homo sapiens, UniProt Q00526); conditions: kinase CDK3 (Entrez CDK3)
T14 construct: purchased Eurofin/DiscoverX
Outline: as §1

[15] = target: T15, 384 kinases from the human genome (Homo sapiens, UniProt Q07912); conditions: kinase TNK2 (Entrez TNK2)
T15 construct: purchased Eurofin/DiscoverX
Outline: as §1

[16] = target: T16, 384 kinases from the human genome (Homo sapiens, UniProt Q08345); conditions: kinase DDR1 (Entrez DDR1)
T16 construct: purchased Eurofin/DiscoverX
Outline: as §1

[17] = target: T17, 384 kinases from the human genome (Homo sapiens, UniProt Q12866); conditions: kinase MERTK (Entrez MERTK)
T17 construct: purchased Eurofin/DiscoverX
Outline: as §1

[18] = target: T18, 384 kinases from the human genome (Homo sapiens, UniProt Q13705); conditions: kinase ACVR2B (Entrez ACVR2B)
T18 construct: purchased Eurofin/DiscoverX
Outline: as §1

[19] = target: T19, 384 kinases from the human genome (Homo sapiens, UniProt Q14012); conditions: kinase CAMK1 (Entrez CAMK1)
T19 construct: purchased Eurofin/DiscoverX
Outline: as §1

[20] = target: T20, 384 kinases from the human genome (Homo sapiens, UniProt Q6ZWH5); conditions: kinase NEK10 (Entrez NEK10)
T20 construct: purchased Eurofin/DiscoverX
Outline: as §1

[21] = target: T21, 384 kinases from the human genome (Homo sapiens, UniProt Q8IVW4); conditions: kinase CDKL3 (Entrez CDKL3)
T21 construct: purchased Eurofin/DiscoverX
Outline: as §1

[22] = target: T22, 384 kinases from the human genome (Homo sapiens, UniProt Q9HC98); conditions: kinase NEK6 (Entrez NEK6)
T22 construct: purchased Eurofin/DiscoverX
Outline: as §1

[23] = target: T23, 384 kinases from the human genome (Homo sapiens, UniProt Q9UBE8); conditions: kinase NLK (Entrez NLK)
T23 construct: purchased Eurofin/DiscoverX
Outline: as §1

[24] = target: T24, 384 kinases from the human genome (Homo sapiens, UniProt Q9Y243); conditions: kinase AKT3 (Entrez AKT3)
T24 construct: purchased Eurofin/DiscoverX
Outline: as §1

[25] = target: T25, 384 kinases from the human genome (Homo sapiens, UniProt Q9Y2K2); conditions: kinase QSK (Entrez KIAA0999)
T25 construct: purchased Eurofin/DiscoverX
Outline: as §1

[26] = system: 384 kinases from the human genome; conditions: 10 µM of 21
Outline: as §1

T2 sequence (O96013 whole entry): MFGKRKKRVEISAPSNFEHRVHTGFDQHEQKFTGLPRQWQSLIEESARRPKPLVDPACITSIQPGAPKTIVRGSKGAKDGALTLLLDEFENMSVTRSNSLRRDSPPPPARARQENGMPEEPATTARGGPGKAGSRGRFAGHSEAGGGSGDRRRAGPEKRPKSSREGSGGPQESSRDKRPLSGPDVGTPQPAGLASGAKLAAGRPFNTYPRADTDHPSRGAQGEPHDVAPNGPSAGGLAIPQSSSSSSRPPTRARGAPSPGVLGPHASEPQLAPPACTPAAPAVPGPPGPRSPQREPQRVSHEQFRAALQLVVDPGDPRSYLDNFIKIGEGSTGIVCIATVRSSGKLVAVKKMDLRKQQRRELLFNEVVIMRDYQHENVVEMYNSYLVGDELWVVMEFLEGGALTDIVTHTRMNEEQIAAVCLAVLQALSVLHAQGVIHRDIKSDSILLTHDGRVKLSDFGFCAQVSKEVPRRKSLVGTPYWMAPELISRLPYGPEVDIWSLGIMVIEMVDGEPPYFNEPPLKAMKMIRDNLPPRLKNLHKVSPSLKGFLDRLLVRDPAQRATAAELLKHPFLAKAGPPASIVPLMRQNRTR
T9 sequence (P49759 whole entry): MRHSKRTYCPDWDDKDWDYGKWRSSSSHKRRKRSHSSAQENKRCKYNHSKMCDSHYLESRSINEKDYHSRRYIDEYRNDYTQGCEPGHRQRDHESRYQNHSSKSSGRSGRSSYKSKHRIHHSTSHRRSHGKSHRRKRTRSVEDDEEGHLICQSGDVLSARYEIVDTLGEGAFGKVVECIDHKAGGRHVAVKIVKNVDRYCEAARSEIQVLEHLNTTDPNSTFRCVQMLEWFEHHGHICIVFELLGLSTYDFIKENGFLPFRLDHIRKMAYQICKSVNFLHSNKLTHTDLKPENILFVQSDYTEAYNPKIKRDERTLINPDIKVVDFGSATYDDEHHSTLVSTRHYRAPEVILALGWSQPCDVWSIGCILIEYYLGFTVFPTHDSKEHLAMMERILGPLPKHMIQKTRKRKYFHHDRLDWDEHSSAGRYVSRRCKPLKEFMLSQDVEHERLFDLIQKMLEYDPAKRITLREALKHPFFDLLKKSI
T11 sequence (P51813 whole entry): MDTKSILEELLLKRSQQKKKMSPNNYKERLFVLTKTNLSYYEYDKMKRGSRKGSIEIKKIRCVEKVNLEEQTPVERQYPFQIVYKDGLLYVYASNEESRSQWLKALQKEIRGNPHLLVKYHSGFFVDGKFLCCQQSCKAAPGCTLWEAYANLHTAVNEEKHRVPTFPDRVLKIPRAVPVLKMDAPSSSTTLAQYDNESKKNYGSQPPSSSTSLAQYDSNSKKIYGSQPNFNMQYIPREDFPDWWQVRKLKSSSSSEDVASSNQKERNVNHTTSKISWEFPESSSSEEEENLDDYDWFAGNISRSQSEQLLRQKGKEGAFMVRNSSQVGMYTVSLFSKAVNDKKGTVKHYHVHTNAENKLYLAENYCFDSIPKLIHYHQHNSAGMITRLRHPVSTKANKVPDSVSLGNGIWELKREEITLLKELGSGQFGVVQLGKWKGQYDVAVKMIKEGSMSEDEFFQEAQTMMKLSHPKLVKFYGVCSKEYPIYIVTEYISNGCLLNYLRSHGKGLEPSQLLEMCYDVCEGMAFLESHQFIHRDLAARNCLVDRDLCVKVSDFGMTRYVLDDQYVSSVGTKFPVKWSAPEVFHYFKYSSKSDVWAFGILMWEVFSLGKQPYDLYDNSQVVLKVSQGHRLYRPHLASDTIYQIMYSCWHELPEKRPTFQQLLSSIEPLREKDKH
T14 sequence (Q00526 whole entry): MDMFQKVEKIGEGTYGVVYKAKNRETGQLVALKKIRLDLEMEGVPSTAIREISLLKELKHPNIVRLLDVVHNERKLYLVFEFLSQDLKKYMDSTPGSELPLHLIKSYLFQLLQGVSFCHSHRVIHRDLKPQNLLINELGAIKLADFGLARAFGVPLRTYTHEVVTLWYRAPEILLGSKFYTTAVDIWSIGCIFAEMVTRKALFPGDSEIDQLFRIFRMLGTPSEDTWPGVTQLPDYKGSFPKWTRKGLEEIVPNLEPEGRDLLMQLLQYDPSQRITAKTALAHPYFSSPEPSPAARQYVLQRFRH
T16 sequence (Q08345 19-913): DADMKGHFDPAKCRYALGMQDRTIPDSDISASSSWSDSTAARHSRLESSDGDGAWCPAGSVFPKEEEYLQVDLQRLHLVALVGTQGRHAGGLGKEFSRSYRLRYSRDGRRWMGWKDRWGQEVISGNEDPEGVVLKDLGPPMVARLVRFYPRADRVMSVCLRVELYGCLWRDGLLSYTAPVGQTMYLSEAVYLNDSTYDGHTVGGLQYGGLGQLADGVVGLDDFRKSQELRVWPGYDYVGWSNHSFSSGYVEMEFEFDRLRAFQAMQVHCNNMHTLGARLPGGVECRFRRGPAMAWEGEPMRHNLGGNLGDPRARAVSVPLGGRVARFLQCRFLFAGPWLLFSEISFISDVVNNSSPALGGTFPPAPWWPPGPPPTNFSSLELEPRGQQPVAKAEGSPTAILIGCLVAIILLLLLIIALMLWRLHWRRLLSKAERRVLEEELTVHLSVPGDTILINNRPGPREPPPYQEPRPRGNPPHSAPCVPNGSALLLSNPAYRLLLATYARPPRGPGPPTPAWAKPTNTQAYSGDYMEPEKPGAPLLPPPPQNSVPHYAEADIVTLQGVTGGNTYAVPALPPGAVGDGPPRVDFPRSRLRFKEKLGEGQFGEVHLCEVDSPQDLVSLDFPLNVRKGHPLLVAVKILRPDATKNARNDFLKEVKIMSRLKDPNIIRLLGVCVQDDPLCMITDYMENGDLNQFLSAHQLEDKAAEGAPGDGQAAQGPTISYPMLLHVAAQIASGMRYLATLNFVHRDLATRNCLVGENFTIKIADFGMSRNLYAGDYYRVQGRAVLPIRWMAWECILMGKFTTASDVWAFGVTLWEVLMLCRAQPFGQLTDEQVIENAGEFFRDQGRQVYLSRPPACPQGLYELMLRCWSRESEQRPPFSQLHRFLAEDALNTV
T22 sequence (Q9HC98 whole entry): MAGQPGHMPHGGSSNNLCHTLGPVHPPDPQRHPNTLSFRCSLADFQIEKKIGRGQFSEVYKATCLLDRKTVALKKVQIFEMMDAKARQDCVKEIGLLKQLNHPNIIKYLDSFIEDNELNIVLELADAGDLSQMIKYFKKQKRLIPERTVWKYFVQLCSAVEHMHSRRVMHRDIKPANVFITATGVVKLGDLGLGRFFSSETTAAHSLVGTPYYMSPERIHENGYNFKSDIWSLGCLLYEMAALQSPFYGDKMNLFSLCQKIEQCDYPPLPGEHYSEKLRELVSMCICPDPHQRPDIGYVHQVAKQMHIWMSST
T18 sequence (Q13705 19-512): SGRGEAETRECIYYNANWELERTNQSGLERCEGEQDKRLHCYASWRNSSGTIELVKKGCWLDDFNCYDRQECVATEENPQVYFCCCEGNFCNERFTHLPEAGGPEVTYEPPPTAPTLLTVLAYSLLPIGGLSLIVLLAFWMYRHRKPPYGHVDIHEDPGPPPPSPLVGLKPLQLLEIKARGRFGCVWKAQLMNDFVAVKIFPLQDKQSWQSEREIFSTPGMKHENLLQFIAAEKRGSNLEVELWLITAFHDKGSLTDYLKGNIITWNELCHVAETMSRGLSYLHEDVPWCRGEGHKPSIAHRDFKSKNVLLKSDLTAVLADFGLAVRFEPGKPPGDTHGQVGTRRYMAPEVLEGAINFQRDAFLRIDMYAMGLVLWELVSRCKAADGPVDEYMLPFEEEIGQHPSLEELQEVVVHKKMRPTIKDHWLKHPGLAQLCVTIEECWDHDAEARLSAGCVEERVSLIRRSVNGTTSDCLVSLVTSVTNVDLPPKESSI
T3 sequence (P0C1S8 whole entry): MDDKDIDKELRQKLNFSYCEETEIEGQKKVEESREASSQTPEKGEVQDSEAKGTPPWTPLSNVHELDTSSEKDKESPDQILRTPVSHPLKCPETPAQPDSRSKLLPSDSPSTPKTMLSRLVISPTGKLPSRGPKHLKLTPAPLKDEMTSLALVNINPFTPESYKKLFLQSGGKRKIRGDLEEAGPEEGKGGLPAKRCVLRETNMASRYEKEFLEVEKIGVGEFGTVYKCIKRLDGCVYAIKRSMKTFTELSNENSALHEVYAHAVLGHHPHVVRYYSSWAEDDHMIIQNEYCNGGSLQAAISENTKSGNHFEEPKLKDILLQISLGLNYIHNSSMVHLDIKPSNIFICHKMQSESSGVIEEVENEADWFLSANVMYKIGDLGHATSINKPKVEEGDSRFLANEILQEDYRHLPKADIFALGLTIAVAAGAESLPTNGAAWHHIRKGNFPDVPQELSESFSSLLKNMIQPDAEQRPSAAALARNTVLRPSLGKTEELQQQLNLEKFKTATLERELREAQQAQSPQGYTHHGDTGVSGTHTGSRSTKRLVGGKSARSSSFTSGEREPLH
T7 sequence (P28482 whole entry): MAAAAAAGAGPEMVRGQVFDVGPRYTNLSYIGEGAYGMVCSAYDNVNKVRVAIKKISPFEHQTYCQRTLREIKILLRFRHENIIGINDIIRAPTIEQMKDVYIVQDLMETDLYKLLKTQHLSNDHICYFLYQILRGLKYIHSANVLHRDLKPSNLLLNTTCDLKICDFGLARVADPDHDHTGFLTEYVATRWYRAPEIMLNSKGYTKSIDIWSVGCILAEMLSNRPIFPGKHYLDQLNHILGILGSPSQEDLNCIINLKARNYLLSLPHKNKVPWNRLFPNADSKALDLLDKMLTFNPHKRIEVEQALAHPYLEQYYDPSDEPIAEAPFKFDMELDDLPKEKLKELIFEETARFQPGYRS

SMILES: CC(C)C(=O)N1CCN(c2ccc(NC(=O)c3cc4ccccc4o3)cc2Cl)CC1 [Compound 21]
- Percent Control [1]: 100%
- Percent Control [2]: 100%
- Percent Control [3]: 100%
- Percent Control [4]: 99%
- Percent Control [5]: 89%
- Percent Control [6]: 92%
- Percent Control [7]: 97%
- Percent Control [8]: 98%
- Percent Control [9]: 98%
- Percent Control [10]: 78%
- Percent Control [11]: 68%
- Percent Control [12]: 100%
- Percent Control [13]: 100%
- Percent Control [14]: 99%
- Percent Control [15]: 68%
- Percent Control [16]: 90%
- Percent Control [17]: 70%
- Percent Control [18]: 89%
- Percent Control [19]: 95%
- Percent Control [20]: 95%
- Percent Control [21]: 100%
- Percent Control [22]: 94%
- Percent Control [23]: 100%
- Percent Control [24]: 100%
- Percent Control [25]: 100%
- binding to ERK subtypes [26]: failed to bind
- binding to MEK subtypes [26]: failed to bind
- binding to PI3K subtypes [26]: failed to bind
- binding to different Akt subtypes [26]: failed to bind
